Reference: US9504755B2, “Multi-arm polymeric alkanoate conjugates” (Nektar Therapeutics, priority 2008, dated 2016)
Marks after values point to notes of the source that are not given here.

Key:
Assay type in all cases: in vivo
LS174T tumors = experiment: Anti-tumor activity in LS174T colorectal mouse xenograft model
Procedure: (§1) H460, LS174T and LoVo tumors were established in female athymic nude mice. Groups of 10 mice received a total of three single doses of 4-ARM-PEG20K-BA-DOC or docetaxel administered every 7 days (q7d×3) at several doses up to a maximum tolerated dose (MTD). Control groups received no treatment after tumor implant. Animals were weighed daily for the first five days and twice weekly thereafter. Tumor volumes were measured twice weekly after the first drug injection.
(§2) Anti-tumor activity was measured as changes in tumor volume, time to reach endpoint, and complete or partial tumor regression.
(§3) Treatment outcome was evaluated by Tumor Growth Delay (TGD), which is defined as the increase in median time to endpoint in a treatment group compared to the control group. Here it is expressed as % TGD, as a percentage to the median time to endpoint of the control group.
(§4) A tumor whose volume was reduced to 50% or less for three consecutive measurements compared to its volume on Day 1 was considered to be in partial regression. Complete regression was defined as volume […] 13.5 mm^3 for three consecutive measurements.
(§5) Acceptable toxicity was defined as a group mean body weight (BW) loss of less than 20% during the study and not more than one treatment-related death among ten treated animals.

LoVo tumors = experiment: Anti-tumor activity in LoVo colorectal mouse xenograft model
Procedure: as §1, §2, §3, §4, §5

[1] = Population pharmacokinetic modeling of terminal disposition rate constant, dogs; conditions: dog, in vivo
Source text: To further evaluate the sustained plasma docetaxel terminal half-life, a population pharmacokinetic approach was employed.
While determining the pharmacokinetics of docetaxel after administration of docetaxel or 4-ARM-PEG20K-BA-docetaxel, it was observed that reliable values for the terminal disposition rate constant λz could not be obtained for the majority of animals secondary to fluctuation of plasma docetaxel concentrations between adjacent sampling times and/or the occurrence of incomplete concentration-time profiles due to concentrations being near or at the lower limit of quantification (1 ng/mL). In addition, in Example 14, rats were sampled in groups of 15 using alternating, overlapping sparse sampling schemes across groups to encompass the total duration of sampling. All of these factors contributed to the occurrence of sparse data within a given animal's terminal concentration-time profile.
To further investigate and compare docetaxel terminal disposition patterns between docetaxel and 4-ARM-PEG20K-BA-docetaxel, population pharmacokinetic methods were applied to data from rats (Example 14) and dogs (Example 15 and in one additional study). This allowed estimation of population λz values and corresponding half-life values for each treatment group in the presence of incomplete data within individual animals. Specifically, data from all animals within a treatment group and all treatment groups were fit with a nonlinear mixed effect pharmacokinetic model using the program Monolix. Plasma docetaxel concentrations following docetaxel or 4-ARM-PEG20K-BA-docetaxel administration, and plasma 4-ARM-PEG20K-BA-docetaxel concentrations following 4-ARM-PEG20K-BA-docetaxel administration were fit with a model specifying zero-order input of the dose over a defined infusion period and biexponential disposition (Monolix PK Model 26). Docetaxel concentration-time data after 4-ARM-PEG20K-BA-docetaxel were fit with a model having first order input, to reflect metabolism of 4-ARM-PEG20K-BA-docetaxel to the active docetaxel metabolite, and biexponential disposition (Monolix PK Model 31). The parameter of interest for this investigation was the population terminal disposition rate constant, λz to supplement the results described above.
Dogs in the additional study received 7 mg/kg doses of 4-ARM-PEG20K-BA-docetaxel on Days 1 and 22 with serial blood sampling after each dose for determination of plasma 4-ARM-PEG20K-BA-docetaxel and docetaxel concentrations.

H460 tumors = experiment: Anti-tumor activity in H460 non-small cell lung mouse xenograft model
Procedure: as §1, §2, §3, §4, §5

[2] = 12.7 mg/kg (38.1 mg/m^2), q7d×3
[3] = 16.9 mg/kg (50.7 mg/m^2), q7d×3
[4] = 22.5 mg/kg (67.5 mg/m^2), q7d×3
[5] = 30 mg/kg (90 mg/m^2), q7d×3 (MTD of docetaxel)
[6] = 30 mg/kg (90 mg/m^2), q7d×3 (MTD of docetaxel), listed as docetaxel
[7] = 18.7 mg/kg (56.1 mg/m^2), q7d×3
[8] = 25 mg/kg (75 mg/m^2), q7d×3 (MTD of docetaxel)

With CC(=O)O[C@@]12CO[C@@H]1C[C@H](O)[C@@]1(C)C(=O)[C@H](O)C3=C(C)[C@@H](OC(=O)[C@H](O)[C@@H](NC(=O)OC(C)(C)C)c4ccccc4)C[C@@](O)([C@@H](OC(=O)c4ccccc4)[C@H]21)C3(C)C [Docetaxel, reference compound] the “BW Loss (%)” value (LS174T tumors; [2]) was 8.8%, the “Day of BW Nadir” value (LS174T tumors; [2]) was 23 and the “No. Surviving/No. Treated Mice” value (LS174T tumors; [2]) was 10/10. The “PR (partial regressions)” value (LS174T tumors; [2]) was 0, the “TGD (%)” value (LS174T tumors; [2]) was 69* % and the “BW Loss (%)” value (LS174T tumors; [3]) was 11.2%. The “Day of BW Nadir” value (LS174T tumors; [3]) was 23, the “No. Surviving/No. Treated Mice” value (LS174T tumors; [3]) was 10/10 and the “PR (partial regressions)” value (LS174T tumors; [3]) was 0. The “TGD (%)” value (LS174T tumors; [3]) was 96* %, the “BW Loss (%)” value (LS174T tumors; [4]) was 6.7% and the “Day of BW Nadir” value (LS174T tumors; [4]) was 23. The “No. Surviving/No. Treated Mice” value (LS174T tumors; [4]) was 10/10, the “PR (partial regressions)” value (LS174T tumors; [4]) was 0 and the “TGD (%)” value (LS174T tumors; [4]) was 135* %. The “Day of BW Nadir” value (LS174T tumors; 30 mg/kg (90 mg/m^2), q7d×3) was 23, the “No. Surviving/No. Treated Mice” value (LS174T tumors; 30 mg/kg (90 mg/m^2), q7d×3) was 10/10 and the “BW Loss (%)” value (LS174T tumors; [5]) was 16.6%. The “PR (partial regressions)” value (LS174T tumors; [5]) was 0, the “TGD (%)” value (LS174T tumors; [5]) was 166* % and the “PR (partial regressions)” value (LS174T tumors; [6]) was “no partial regressions”. For the same compound, the “TGD (%)” value (LS174T tumors; [6]) was 166%, the “BW Loss (%)” value (LoVo tumors; [2]) was 5.0% and the “Day of BW Nadir” value (LoVo tumors; [2]) was 24. For the same compound, the “No. Surviving/No. Treated Mice” value (LoVo tumors; [2]) was 10/10, the “PR (partial regressions)” value (LoVo tumors; [2]) was 0 and the “TGD (%)” value (LoVo tumors; [2]) was 7%. For the same compound, the “BW Loss (%)” value (LoVo tumors; [3]) was 12.8%, the “Day of BW Nadir” value (LoVo tumors; [3]) was 21 and the “No. Surviving/No. Treated Mice” value (LoVo tumors; [3]) was 10/10. For the same compound, the “PR (partial regressions)” value (LoVo tumors; [3]) was 0, the “TGD (%)” value (LoVo tumors; [3]) was 70** % and the “BW Loss (%)” value (LoVo tumors; [4]) was 14.6%. For the same compound, the “Day of BW Nadir” value (LoVo tumors; [4]) was 24, the “No. Surviving/No. Treated Mice” value (LoVo tumors; [4]) was 10/10 and the “PR (partial regressions)” value (LoVo tumors; [4]) was 0. For the same compound, the “TGD (%)” value (LoVo tumors; [4]) was 32* %, the “BW Loss (%)” value (LoVo tumors; 30 mg/kg (90 mg/m^2), q7d×3) was 13.3% and the “Day of BW Nadir” value (LoVo tumors; 30 mg/kg (90 mg/m^2), q7d×3) was 21. For the same compound, the “No. Surviving/No. Treated Mice” value (LoVo tumors; 30 mg/kg (90 mg/m^2), q7d×3) was 10/10, the “PR (partial regressions)” value (LoVo tumors; 30 mg/kg (90 mg/m^2), q7d×3) was 0 and the “TGD (%)” value (LoVo tumors; 30 mg/kg (90 mg/m^2), q7d×3 (MTD for both agents)) was 64** %. For the same compound, the “TGD (%)” value (LoVo tumors; 30 mg/kg (90 mg/m^2), q7d×3 (MTD for both agents), listed as docetaxel) was 64%, the “t½λz, plasma docetaxel” value [1] was 25 h and the “BW Loss (%)” value (H460 tumors; 10 mg/kg (30 mg/m^2), q7d×3) was 0/0%. The “No. Surviving/No. Treated Mice” value (H460 tumors; 10 mg/kg (30 mg/m^2), q7d×3) was 10/10, the “TGD (%)” value (H460 tumors; 10 mg/kg (30 mg/m^2), q7d×3) was −2% and the “BW Loss (%)” value (H460 tumors; 14 mg/kg (42 mg/m^2), q7d×3) was 4.1%. The “Day of BW Nadir” value (H460 tumors; 14 mg/kg (42 mg/m^2), q7d×3) was 19, the “No. Surviving/No. Treated Mice” value (H460 tumors; 14 mg/kg (42 mg/m^2), q7d×3) was 10/10 and the “TGD (%)” value (H460 tumors; 14 mg/kg (42 mg/m^2), q7d×3) was 4%. For the same compound, the “BW Loss (%)” value (H460 tumors; [7]) was 9.7%, the “Day of BW Nadir” value (H460 tumors; [7]) was 22 and the “No. Surviving/No. Treated Mice” value (H460 tumors; [7]) was 10/10. The “TGD (%)” value (H460 tumors; [7]) was 23%, the “Day of BW Nadir” value (H460 tumors; 25 mg/kg (75 mg/m^2), q7d×3) was 26 and the “No. Surviving/No. Treated Mice” value (H460 tumors; 25 mg/kg (75 mg/m^2), q7d×3) was 10/10. The “BW Loss (%)” value (H460 tumors; [8]) was 15.5%, the “TGD (%)” value (H460 tumors; [8]) was 48% and the “TGD (%)” value (H460 tumors; 25 mg/kg (75 mg/m^2), q7d×3 (MTD of docetaxel), listed as docetaxel) was 48%. The “antitumor activity below MTD” value (H460 tumors; 4-ARM-PEG20K-BA-DOC at 19 mg/kg (58% of its MTD), docetaxel doses less than 25 mg/kg) was “did not”.
